Test results: patent publication US12302841B2, “Soybean variety comprising high content of epicatechin” (AMOREPACIFIC CORPORATION, priority 2020, dated 2025)

How the values were obtained:
collagenase (MMP-1) = test: Collagenase (MMP-1) expression inhibition test in human fibroblasts; type: cell-based; conditions: 10 μg/mL in serum-free DMEM, 24 hours, relative to untreated group
Description: In order to investigate the antiaging activity of the extract of the Aritaunkong bred in Example 1, the collagenase (MMP-1) expression-inhibiting effect of each of the soybean extracts prepared in Preparation Example was assessed. Specifically, after placing human fibroblasts (Cascade Biologics, Portland, OR, USA) on a 96-well microtiter plate containing DMEM (Dulbecco's modified Eagle's medium) supplemented with 2.5 wt % of fetal bovine serum at 5,000 cells/well, the cells were cultured until ˜90% confluency. Then, after culturing the cells in serum-free DMEM for 24 hours and treating with each of the three soybean extracts of Preparation Example or EGCG (Sigma-Aldrich) as a positive control group, dissolved in serum-free DMEM to 10 μg/mL, for 24 hours, the cell culture was collected. Subsequently, the degree of collagenase production in the collected cell culture was measured using a collagenase measurement kit (Amersham Pharmacia, USA). First, after placing the collected cell culture on a 96-well plate on which a primary collagenase antibody is coated uniformly, antigen-antibody reaction was conducted for 3 hours in a constant-temperature bath (36° C.). […] Collagenase expression inhibition (%)=(1−absorbance of substance-treated cell group/absorbance of control group)×100 [Equation 1]

[1] = Antioxidant activity test through DPPH reduction (DPPH radical-scavenging ability); type: biochemical; conditions: 100 μM DPPH in ethanol, 37° C. for 30 minutes, absorbance at 540 nm; sample concentration at which absorbance decreased by 50%
Description: In order to investigate the antioxidant activity of the extract of the Aritaunkong bred in Example 1, the DPPH (1,1-diphenyl-2-picrylhydrazyl) oxidation-inhibiting effect of each soybean extract prepared in Preparation Example was compared by monitoring the change in absorbance occurring as a result of reduction of DPPH. Specifically, after preparing 190 μL of a 100 μM (in ethanol) DPPH solution and the soybean extract of Preparation Example and the synthetic antioxidant Trolox (positive control group) to a concentration of 10,000 ppm, they were diluted to final concentrations of 500 ppm, 250 ppm, 125 ppm, 62.5 ppm, 31.25 ppm and 15.63 ppm. After preparing […] reaction solutions by mixing them, absorbance was measured at 540 nm after incubation at 37° C. for 30 minutes. The IC50 indicates the sample concentration when the absorbance was decreased by 50% due to the addition of the sample.

Collagenase expression inhibition (%) (collagenase (MMP-1)) | DPPH radical-scavenging ability (IC50) [1] [ppm] | SMILES
60.8 | – | O=C(O[C@@H]1Cc2c(O)cc(O)cc2O[C@@H]1c1cc(O)c(O)c(O)c1)c1cc(O)c(O)c(O)c1 [EGCG]
– | 53.2 | Cc1c(C)c2c(c(C)c1O)CCC(C)(C(=O)O)O2 (centres unmarked) [Trolox]
